Data published in PubChem BioAssay AID1963961 (Molecular Pharmacology Branch, DTP, NCI, 2024).

Tested on: K98450-129-R-PDC multicell spheroids, viability
Experiment: Anticancer human tumor K98450-129-R-PDC patient-derived colon adenocarcinoma cell line growth inhibition [PI3K]
Details: for IC50: curve of first compound; for viability, T/C: stronger effect = lower value
In short: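 Complex 3D spheroids (cancer cells + endothelial HUVEC + mesenchymal stem cells); drug pairs of targeted agent x inavolisib/alpelisib/duvelisib/copanlisib; half-log series from ~Cmax, max 10 microM if Cmax unknown; endpoint viability.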

[1] = second compound 0.0316 µM, first compound 0.0316 µM
[2] = second compound 0.0316 µM, first compound 0.1 µM
[3] = second compound 0.1 µM, first compound 0.0316 µM
[4] = second compound 0.1 µM, first compound 0.1 µM
[5] = second compound 0.316 µM, first compound 0.0316 µM
[6] = second compound 0.316 µM, first compound 0.1 µM
[7] = second compound 1 µM, first compound 0.0316 µM
[8] = second compound 1 µM, first compound 0.1 µM
[9] = second compound 3.16 µM, first compound 0.0316 µM
[10] = second compound 3.16 µM, first compound 0.1 µM
[11] = second compound 10 µM, first compound 0.0316 µM
[12] = second compound 10 µM, first compound 0.1 µM
[13] = second compound 0.0316 µM, first compound 0.316 µM
[14] = second compound 0.0316 µM, first compound 1 µM
[15] = second compound 0.0316 µM, first compound 3.16 µM
[16] = second compound 0.0316 µM, first compound 10 µM
[17] = second compound 0.1 µM, first compound 0.316 µM
[18] = second compound 0.1 µM, first compound 1 µM
[19] = second compound 0.1 µM, first compound 3.16 µM
[20] = second compound 0.1 µM, first compound 10 µM
[21] = second compound 0.316 µM, first compound 0.316 µM
[22] = second compound 0.316 µM, first compound 1 µM
[23] = second compound 0.316 µM, first compound 3.16 µM
[24] = second compound 0.316 µM, first compound 10 µM
[25] = second compound 1 µM, first compound 0.316 µM
[26] = second compound 1 µM, first compound 1 µM
[27] = second compound 1 µM, first compound 3.16 µM
[28] = second compound 1 µM, first compound 10 µM
[29] = second compound 3.16 µM, first compound 0.316 µM
[30] = second compound 3.16 µM, first compound 1 µM
[31] = second compound 3.16 µM, first compound 3.16 µM
[32] = second compound 3.16 µM, first compound 10 µM
[33] = second compound 10 µM, first compound 0.316 µM
[34] = second compound 10 µM, first compound 1 µM
[35] = second compound 10 µM, first compound 3.16 µM
[36] = second compound 10 µM, first compound 10 µM
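Note: spheroids exposed to agents for seven days before read-out.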

Question: For CC(=O)c1c(C)c2cnc(Nc3ccc(N4CCNCC4)cn3)nc2n(C2CCCC2)c1=O + Cc1nc(NC(=O)N2CCCC2C(N)=O)sc1-c1ccnc(C(C)(C)C(F)(F)F)c1, which IC50 (second compound 0.0316 µM) is on record?
Answer: > 0.1 µM

Question: And the IC50 (second compound 0.1 µM)?
Answer: > 0.1 µM

Question: And the IC50 (second compound 0.316 µM)?
Answer: > 0.1 µM

Question: And the IC50 (second compound 1 µM)?
Answer: > 0.1 µM

Question: What about the IC50 (second compound 3.16 µM) of the same molecule?
Answer: > 0.1 µM

Question: What about the IC50 (second compound 10 µM) of the same molecule?
Answer: > 0.1 µM

Question: And the viability, T/C (second compound 0.0316 µM, first compound 0.000316 µM)?
Answer: 110%

Question: And the viability, T/C (second compound 0.0316 µM, first compound 0.001 µM)?
Answer: 101%

Question: What about the viability, T/C (second compound 0.0316 µM, first compound 0.00316 µM) of the same molecule?
Answer: 104%

Question: And the viability, T/C (second compound 0.0316 µM, first compound 0.01 µM)?
Answer: 104%

Question: What about the viability, T/C [1] of the same molecule?
Answer: 100%

Question: And the viability, T/C [2]?
Answer: 97.9%

Question: What about the viability, T/C (second compound 0.1 µM, first compound 0.000316 µM) of the same molecule?
Answer: 108%

Question: What about the viability, T/C (second compound 0.1 µM, first compound 0.001 µM) of the same molecule?
Answer: 95.2%

Question: What about the viability, T/C (second compound 0.1 µM, first compound 0.00316 µM) of the same molecule?
Answer: 97.9%

Question: What about the viability, T/C (second compound 0.1 µM, first compound 0.01 µM) of the same molecule?
Answer: 93.7%

Question: And the viability, T/C [3]?
Answer: 106%

Question: And the viability, T/C [4]?
Answer: 98%

Question: And the viability, T/C (second compound 0.316 µM, first compound 0.000316 µM)?
Answer: 104%

Question: And the viability, T/C (second compound 0.316 µM, first compound 0.001 µM)?
Answer: 107%

Question: What about the viability, T/C (second compound 0.316 µM, first compound 0.00316 µM) of the same molecule?
Answer: 95.3%

Question: What about the viability, T/C (second compound 0.316 µM, first compound 0.01 µM) of the same molecule?
Answer: 93.3%

Question: What about the viability, T/C [5] of the same molecule?
Answer: 103%

Question: And the viability, T/C [6]?
Answer: 99%

Question: What about the viability, T/C (second compound 1 µM, first compound 0.000316 µM) of the same molecule?
Answer: 90%

Question: What about the viability, T/C (second compound 1 µM, first compound 0.001 µM) of the same molecule?
Answer: 92.9%

Question: And the viability, T/C (second compound 1 µM, first compound 0.00316 µM)?
Answer: 91.3%

Question: And the viability, T/C (second compound 1 µM, first compound 0.01 µM)?
Answer: 89.7%

Question: And the viability, T/C [7]?
Answer: 98.8%

Question: What about the viability, T/C [8] of the same molecule?
Answer: 95.9%

Question: And the viability, T/C (second compound 3.16 µM, first compound 0.000316 µM)?
Answer: 88.2%

Question: And the viability, T/C (second compound 3.16 µM, first compound 0.001 µM)?
Answer: 86.8%

Question: What about the viability, T/C (second compound 3.16 µM, first compound 0.00316 µM) of the same molecule?
Answer: 84.6%

Question: What about the viability, T/C (second compound 3.16 µM, first compound 0.01 µM) of the same molecule?
Answer: 86.3%

Question: And the viability, T/C [9]?
Answer: 92.1%

Question: What about the viability, T/C [10] of the same molecule?
Answer: 86.3%

Question: And the viability, T/C (second compound 10 µM, first compound 0.000316 µM)?
Answer: 79.4%

Question: And the viability, T/C (second compound 10 µM, first compound 0.001 µM)?
Answer: 74.6%

Question: And the viability, T/C (second compound 10 µM, first compound 0.00316 µM)?
Answer: 77.3%

Question: What about the viability, T/C (second compound 10 µM, first compound 0.01 µM) of the same molecule?
Answer: 79.8%

Question: What about the viability, T/C [11] of the same molecule?
Answer: 80.9%

Question: What about the viability, T/C [12] of the same molecule?
Answer: 70.3%

Question: How did the IC50 (second compound 0.0316 µM) turn out when CCCS(=O)(=O)Nc1ccc(F)c(C(=O)c2c[nH]c3ncc(-c4ccc(Cl)cc4)cc23)c1F + Cc1nc(NC(=O)N2CCCC2C(N)=O)sc1-c1ccnc(C(C)(C)C(F)(F)F)c1 was run?
Answer: 6.04 µM

Question: What about the IC50 (second compound 0.1 µM) of the same molecule?
Answer: 6 µM

Question: And the IC50 (second compound 0.316 µM)?
Answer: 5.81 µM

Question: What about the IC50 (second compound 1 µM) of the same molecule?
Answer: 5.69 µM

Question: And the IC50 (second compound 3.16 µM)?
Answer: 5.33 µM

Question: And the IC50 (second compound 10 µM)?
Answer: 4.79 µM

Question: And the viability, T/C [1]?
Answer: 106%

Question: And the viability, T/C [2]?
Answer: 98.7%

Question: What about the viability, T/C [13] of the same molecule?
Answer: 101%

Question: And the viability, T/C [14]?
Answer: 101%

Question: And the viability, T/C [15]?
Answer: 124%

Question: What about the viability, T/C [16] of the same molecule?
Answer: 6.29%

Question: What about the viability, T/C [3] of the same molecule?
Answer: 108%

Question: What about the viability, T/C [4] of the same molecule?
Answer: 96.9%

Question: And the viability, T/C [17]?
Answer: 105%

Question: And the viability, T/C [18]?
Answer: 103%

Question: What about the viability, T/C [19] of the same molecule?
Answer: 118%

Question: What about the viability, T/C [20] of the same molecule?
Answer: 5.28%

Question: And the viability, T/C [5]?
Answer: 95.8%

Question: What about the viability, T/C [6] of the same molecule?
Answer: 95.8%

Question: And the viability, T/C [21]?
Answer: 94.1%

Question: And the viability, T/C [22]?
Answer: 92.8%

Question: And the viability, T/C [23]?
Answer: 120%

Question: What about the viability, T/C [24] of the same molecule?
Answer: 5.66%

Question: And the viability, T/C [7]?
Answer: 89.2%

Question: And the viability, T/C [8]?
Answer: 90.9%

Question: What about the viability, T/C [25] of the same molecule?
Answer: 94.3%

Question: And the viability, T/C [26]?
Answer: 92.9%

Question: What about the viability, T/C [27] of the same molecule?
Answer: 107%

Question: What about the viability, T/C [28] of the same molecule?
Answer: 6.99%

Question: What about the viability, T/C [9] of the same molecule?
Answer: 84%

Question: What about the viability, T/C [10] of the same molecule?
Answer: 85.8%

Question: What about the viability, T/C [29] of the same molecule?
Answer: 84.5%

Question: And the viability, T/C [30]?
Answer: 89%

Question: What about the viability, T/C [31] of the same molecule?
Answer: 88.8%

Question: What about the viability, T/C [32] of the same molecule?
Answer: 6.1%

Question: And the viability, T/C [11]?
Answer: 70.5%

Question: What about the viability, T/C [12] of the same molecule?
Answer: 72.8%

Question: And the viability, T/C [33]?
Answer: 78%

Question: And the viability, T/C [34]?
Answer: 71.1%

Question: And the viability, T/C [35]?
Answer: 76.9%

Question: And the viability, T/C [36]?
Answer: 7.67%

Question: How did the IC50 (second compound 0.0316 µM) turn out when CNC(=O)c1ccc(N2C(=S)N(c3ccc(C#N)c(C(F)(F)F)c3)C(=O)C2(C)C)cc1F + Cc1nc(NC(=O)N2CCCC2C(N)=O)sc1-c1ccnc(C(C)(C)C(F)(F)F)c1 was run?
Answer: > 10 µM

Question: What about the IC50 (second compound 0.1 µM) of the same molecule?
Answer: > 10 µM

Question: What about the IC50 (second compound 0.316 µM) of the same molecule?
Answer: > 10 µM

Question: What about the IC50 (second compound 1 µM) of the same molecule?
Answer: > 10 µM

Question: And the IC50 (second compound 3.16 µM)?
Answer: > 10 µM

Question: What about the IC50 (second compound 10 µM) of the same molecule?
Answer: > 10 µM

Question: And the viability, T/C [1]?
Answer: 108%

Question: What about the viability, T/C [2] of the same molecule?
Answer: 93%

Question: And the viability, T/C [13]?
Answer: 106%

Question: What about the viability, T/C [14] of the same molecule?
Answer: 94.2%

Question: What about the viability, T/C [15] of the same molecule?
Answer: 109%

Question: What about the viability, T/C [16] of the same molecule?
Answer: 111%

Question: And the viability, T/C [3]?
Answer: 111%

Question: What about the viability, T/C [4] of the same molecule?
Answer: 92.2%

Question: What about the viability, T/C [17] of the same molecule?
Answer: 102%

Question: What about the viability, T/C [18] of the same molecule?
Answer: 89.2%

Question: And the viability, T/C [19]?
Answer: 104%

Question: What about the viability, T/C [20] of the same molecule?
Answer: 109%

Question: What about the viability, T/C [5] of the same molecule?
Answer: 97%

Question: And the viability, T/C [6]?
Answer: 96.2%

Question: What about the viability, T/C [21] of the same molecule?
Answer: 94.8%

Question: What about the viability, T/C [22] of the same molecule?
Answer: 97.3%

Question: And the viability, T/C [23]?
Answer: 105%

Question: What about the viability, T/C [24] of the same molecule?
Answer: 109%

Question: What about the viability, T/C [7] of the same molecule?
Answer: 90.5%

Question: And the viability, T/C [8]?
Answer: 91.2%

Question: What about the viability, T/C [25] of the same molecule?
Answer: 87.5%

Question: What about the viability, T/C [26] of the same molecule?
Answer: 91.4%

Question: And the viability, T/C [27]?
Answer: 101%

Question: And the viability, T/C [28]?
Answer: 99%

Question: What about the viability, T/C [9] of the same molecule?
Answer: 81.1%

Question: What about the viability, T/C [10] of the same molecule?
Answer: 88.2%

Question: And the viability, T/C [29]?
Answer: 87.1%

Question: And the viability, T/C [30]?
Answer: 81.8%

Question: And the viability, T/C [31]?
Answer: 92%

Question: And the viability, T/C [32]?
Answer: 83.7%

Question: And the viability, T/C [11]?
Answer: 70.2%

Question: What about the viability, T/C [12] of the same molecule?
Answer: 69.2%

Question: And the viability, T/C [33]?
Answer: 74.7%

Question: What about the viability, T/C [34] of the same molecule?
Answer: 71.1%

Question: What about the viability, T/C [35] of the same molecule?
Answer: 79%

Question: What about the viability, T/C [36] of the same molecule?
Answer: 73.5%
